The record followed here is BindingDB's records for doi:10.1016/j.ejmech.2021.113298 (Chung-Ang University, 2021).

Structures are written as SMILES. pIC50: −log10 of the molar value. Where only a bound is given, the exact number is not on record here.

The nature of the assay: Inhibition of CSF1R in mouse MNFS-60 cells assessed as reduction in CSF-induced cell viability after 48 hrs by Ez-cytox reagent based assay.
Consider `Cc1cn(-c2cc(NC(=O)c3ccc(C)c(NC(=O)c4cnc5ccccn45)c3)cc(C(F)(F)F)c2)cn1`, for which the negative-log IC50 (pIC50) (as a rule, −log10 of the IC50, conventionally taken in molar units) is 6.31.

Turning to `Cc1cn(-c2cc(NC(=O)c3ccc(C)c(Nc4nccc(-c5cccnc5)n4)c3)cc(C(F)(F)F)c2)cn1` [AMN 107], the pIC50 is 6.27. Turning to `Cc1ccc(NCc2ccc(C(F)(F)F)nc2)cc1NC(=O)c1cnc2cccnn12`, the pIC50 was below 5.00. As to `Cc1ccc(NCc2ccc(C(F)(F)F)nc2)cc1NC(=O)c1cnn2ccccc12`, the pIC50 is 5.24.

For the compound `CNC(=O)c1cc(Oc2ccc3nc(N[C@H]4CCCC[C@H]4O)sc3c2)ccn1`, the negative-log IC50 (pIC50) was 6.61. Consider `CCN1CCN(Cc2ccc(C(=O)Nc3ccc(C)c(NCc4cnc5ccc(OC)nn45)c3)cc2C(F)(F)F)CC1`, for which the pIC50 is 6.39. For the compound `Cc1ccc(NC(=O)c2ccc(C(F)(F)F)nc2)cc1NC(=O)c1cnn2ccccc12`, the pIC50 was 7.57. With `CCN1CCN(Cc2ccc(C(=O)Nc3ccc(C)c(NC(=O)c4ccn(C)n4)c3)cc2C(F)(F)F)CC1`, the pIC50 was 5.29. Consider `FC(F)(F)c1ccc(CNc2ccc(Cc3c[nH]c4ncc(Cl)cc34)cn2)cn1`, for which the pIC50 was 7.85. The figure for `CCN1CCN(Cc2ccc(C(=O)Nc3ccc(C)c(NC(=O)c4n[nH]c5ccccc45)c3)cc2C(F)(F)F)CC1` is 5.80; for `CCN1CCN(Cc2ccc(C(=O)Nc3ccc(C)c(NC(=O)c4n[nH]c5ncccc45)c3)cc2C(F)(F)F)CC1` it is 6.60. As to `Cc1ccc(NC(=O)c2ccc(C(F)(F)F)nc2)cc1NC(=O)c1cnc2cccnn12`, the pIC50 is below 5.00. In the case of `CCN1CCN(Cc2ccc(C(=O)Nc3ccc(C)c(NC(=O)c4cnc5ncccn45)c3)cc2C(F)(F)F)CC1`, the pIC50 is 5.38.

Regarding `CCN1CCN(Cc2ccc(C(=O)Nc3ccc(C)c(NC(=O)c4ncc[nH]4)c3)cc2C(F)(F)F)CC1`, the negative-log IC50 (pIC50) was 5.24.

For the compound `CCN1CCN(Cc2ccc(C(=O)Nc3ccc(C)c(NCc4cnc5cccnn45)c3)cc2C(F)(F)F)CC1`, the pIC50 is 6.18.

Regarding `Cc1ccc(NCc2ccc(C(F)(F)F)nc2)cc1NC(=O)c1cnc2ccccn12`, the pIC50 was 5.50. Turning to `Cc1cn(-c2cc(NC(=O)c3ccc(C)c(NC(=O)c4cnc5cccnn45)c3)cc(C(F)(F)F)c2)cn1`, the negative logarithm of the IC50 (pIC50) is 5.74.

For `CCN1CCN(Cc2ccc(C(=O)Nc3ccc(C)c(NC(=O)c4c[nH]cn4)c3)cc2C(F)(F)F)CC1`, the pIC50 was 5.27. The figure for `CCN1CCN(Cc2ccc(C(=O)Nc3ccc(C)c(NC(=O)c4cnnc5ccccc45)c3)cc2C(F)(F)F)CC1` is 5.80; for `CCN1CCN(Cc2ccc(NC(=O)c3ccc(C)c(NC(=O)c4cnc5cccnn45)c3)cc2C(F)(F)F)CC1` it is 6.91; for `CCN1CCN(Cc2ccc(C(=O)Nc3ccc(C)c(NC(=O)c4cnc5ccccn45)c3)cc2C(F)(F)F)CC1` it is 6.83. Regarding `CCN1CCN(Cc2ccc(C(=O)Nc3ccc(C)c(NC(=O)c4cnn5ccccc45)c3)cc2C(F)(F)F)CC1`, the pIC50 was 7.04. As to `Cc1ccc(NC(=O)c2ccc(C(F)(F)F)nc2)cc1NC(=O)c1cnc2ccccn12`, the negative logarithm of the IC50 (pIC50) is 7.60. In the case of `CCN1CCN(Cc2ccc(C(=O)Nc3ccc(C)c(NC(=O)c4cnc5cccnn45)c3)cc2C(F)(F)F)CC1`, the pIC50 was 6.75. As to `CCN1CCN(Cc2ccc(C(=O)Nc3ccc(C)c(NC(=O)c4cc[nH]n4)c3)cc2C(F)(F)F)CC1`, the pIC50 was 5.33.
